Assay results reported in patent publication US20250034147A1, “MDM2 DEGRADERS AND USES THEREOF” (Kymera Therapeutics, Inc., priority 2021, published 2025).

Tests used:
RS411 cells = test: Cell Viability CTG Assay; type: cell-based; conditions: Homo sapiens, RS4-11, CellTiter Glo (CTG) cell viability, read-out: Average external-IC50
Method in brief: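 RS411 cells (1000/well) exposed 1 day at 37 °C to compound, 11-point 3-fold dilution from 10 μM top, 0.2% DMSO final. Viability read by CellTiter-Glo luminescence; IC50 reported as letter bins.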

HiBiT-tagged MDM2 = molecular target: T1, HiBiT-tagged MDM2 (Homo sapiens, UniProt Q00987); test: MDM2 HiBit HEK293T degradation; type: cell-based; conditions: HEK293T cells stably expressing C-terminally HiBiT-tagged MDM2; 4 h; read-out: MDM2 HiBit HEK293T degradation 4 h: Average external-Abs DC50
T1 construct: expressed in transfected cells
Method in brief: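 Degradation was measured in HEK293T cells stably expressing C-terminally HiBiT-tagged MDM2, a pool selected with 1 microgram/ml puromycin. A MDM2 tool degrader and HaloPROTAC3 served as positive controls. Potency is reported as DC50 in letter bins.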

T1 sequence (Q00987 whole entry): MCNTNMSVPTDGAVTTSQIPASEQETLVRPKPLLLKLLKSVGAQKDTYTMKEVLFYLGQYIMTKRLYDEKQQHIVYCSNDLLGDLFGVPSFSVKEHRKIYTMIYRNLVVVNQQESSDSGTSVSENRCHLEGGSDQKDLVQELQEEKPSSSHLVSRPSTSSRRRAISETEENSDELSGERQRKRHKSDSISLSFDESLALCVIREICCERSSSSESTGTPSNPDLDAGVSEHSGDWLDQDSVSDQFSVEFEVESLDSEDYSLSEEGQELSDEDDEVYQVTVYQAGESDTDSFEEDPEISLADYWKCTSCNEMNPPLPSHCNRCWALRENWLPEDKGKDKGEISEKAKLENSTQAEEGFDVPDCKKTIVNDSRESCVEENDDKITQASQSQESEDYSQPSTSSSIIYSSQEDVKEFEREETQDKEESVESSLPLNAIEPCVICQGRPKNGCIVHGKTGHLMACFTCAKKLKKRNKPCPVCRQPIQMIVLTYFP

SMILES	IC50 (RS411 cells) [nM]	DC50 (HiBiT-tagged MDM2) [nM]
COc1cc2c(cc1OC(C)C)[C@H](c1ccc(Cl)cc1)N(c1ccc(N(C)C[C@H]3CC[C@H](N4CCN(c5ccc6c(c5)n(C)c(=O)n6C5CCC(=O)NC5=O)CC4)CC3)cc1)C(=O)C2 (stereo partly drawn) [I-71, 3-[5-[4-[4-[[4-[(1S)-1-(4-chlorophenyl)-7-isopropoxy-6-methoxy-3-oxo-1,4-dihydroisoquinolin-2-yl]-N-methyl-anilino]methyl]cyclohexyl]piperazin-1-yl]-3-methyl-2-oxo-benzimidazol-1-yl]piperidine-2,6-dione]	< 5	< 10
Cn1c(=O)n(C2CCC(=O)NC2=O)c2ccc(CCCN3CCN(C[C@H]4CC[C@H](NC(=O)[C@@H]5NC6(CCC(C)(C)CC6)[C@@]6(C(=O)Nc7cc(Cl)ccc76)[C@H]5c5cccc(Cl)c5F)CC4)CC3)cc21 (stereo partly shown) [I-72]	< 5	< 10
COc1cc2c(cc1OC(C)C)[C@H](c1ccc(Cl)cc1)N(c1ccc(N(C)C[C@H]3CC[C@H](N4CCC(c5ccc6c(c5)n(C)c(=O)n6C5CCC(=O)NC5=O)CC4)CC3)cc1)C(=O)C2 (stereo partly shown) [I-73]	< 5	< 10
COc1cc2c(cc1OC(C)C)[C@H](c1ccc(Cl)cc1)N(c1ccc(N(C)C[C@H]3CC[C@H](c4ccc5c(c4)n(C)c(=O)n5C4CCC(=O)NC4=O)CC3)cc1)C(=O)C2 (stereo partly shown) [I-74]	5 to 50	< 10
CN1[C@@H](C(=O)N[C@H]2CC[C@H](CN3CC4(CCN(CCc5ccc6c(c5)n(C)c(=O)n6C5CCC(=O)NC5=O)CC4)C3)CC2)[C@H](c2cccc(Cl)c2F)[C@]2(C(=O)Nc3cc(Cl)ccc32)C12CCCCC2 (stereo partly shown) [I-75]	5 to 50	< 10
Cn1c(=O)n(C2CCC(=O)NC2=O)c2ccc(C3CCN(C[C@@H]4CC[C@@H](NC(=O)[C@@H]5NC6(CCC(C)(C)CC6)[C@@]6(C(=O)Nc7cc(Cl)ccc76)[C@H]5c5ccnc(Cl)c5F)CO4)CC3)cc21 (stereo partly shown) [I-76]	< 5	< 10
Cn1c(=O)n(C2CCC(=O)NC2=O)c2ccc(C#CC3CCN(C[C@H]4CC[C@H](NC(=O)[C@@H]5NC6(CCC(C)(C)CC6)[C@@]6(C(=O)Nc7cc(Cl)ccc76)[C@H]5c5ccnc(Cl)c5F)CC4)C(=O)C3)cc21 (stereo partly shown) [I-77]	5 to 50	< 10
Cn1c(=O)n(C2CCC(=O)NC2=O)c2ccc(CCN3CCN(CCCN4CCC(NC(=O)[C@@H]5NC6(CCCCC6)[C@@]6(C(=O)Nc7cc(Cl)ccc76)[C@H]5c5cccc(Cl)c5F)CC4)CC3)cc21 (stereo partly shown) [I-78]	< 5	< 10
CCCc1ccc2c(c1)NC(=O)[C@]21[C@@H](c2cccc(Cl)c2F)[C@H](C(=O)N[C@H]2CC[C@H](CN3CCC(c4ccc5c(c4)n(C)c(=O)n5C4CCC(=O)NC4=O)CC3)CC2)NC12CCCCC2 (stereo partly shown) [I-79]	> 500	< 10
Cn1c(=O)n(C2CCC(=O)NC2=O)c2ccc(C3CCN(S(=O)(=O)NC(=O)[C@H]4CC[C@H](NC(=O)[C@@H]5NC6(CCCCC6)[C@@]6(C(=O)Nc7cc(Cl)ccc76)[C@H]5c5cccc(Cl)c5F)CC4)CC3)cc21 (stereo partly shown) [I-80]	< 5	< 10
Cc1ccc2c(c1)NC(=O)[C@]21[C@@H](c2cccc(Cl)c2F)[C@H](C(=O)N[C@H]2CC[C@H](C(=O)N3CCC(c4ccc5c(c4)n(C)c(=O)n5C4CCC(=O)NC4=O)CC3)CC2)NC12CCCCC2 (stereo partly shown) [I-81]	< 5	< 10
O=C(O)CCn1c(=O)n(C2CCC(=O)NC2=O)c2ccc(C3CCN(C(=O)[C@H]4CC[C@H](NC(=O)[C@@H]5NC6(CCCCC6)[C@@]6(C(=O)Nc7cc(Cl)ccc76)[C@H]5c5cccc(Cl)c5F)CC4)CC3)cc21 (stereo partly shown) [I-82]	5 to 50	10 to 100
Cn1c(=O)n(C2CCC(=O)NC2=O)c2ccc(C3CCN(C[C@H]4CC[C@H](NC(=O)[C@@H]5NC6(CCCCC6)[C@@]6(C(=O)Nc7cc(Cl)ccc76)[C@H]5c5cccc(Cl)c5F)CC4)C[C@H]3F)cc21 (stereo partly shown) [I-83]	> 500	10 to 100
Cn1c(=O)n(C2CCC(=O)NC2=O)c2ccc([C@@H]3CCN(C[C@H]4CC[C@H](NC(=O)[C@@H]5NC6(CCCCC6)[C@@]6(C(=O)Nc7cc(Cl)ccc76)[C@H]5c5cccc(Cl)c5F)CC4)C[C@@H]3F)cc21 (stereo partly shown) [I-85]	5 to 50	< 10
Cn1c(=O)n(C2CCC(=O)NC2=O)c2ccc(N3CC4(CCN(C(=O)[C@H]5CC[C@H](NC(=O)[C@@H]6NC7(CCCCC7)[C@@]7(C(=O)Nc8cc(Cl)ccc87)[C@H]6c6cccc(Cl)c6F)CC5)CC4)C3)cc21 (stereo partly shown) [I-86]	< 5	< 10
O=C(N[C@H]1CC[C@H](CN2CCC(CCCCCC3CCN(C[C@H]4CC[C@H](NC(=O)[C@@H]5NC6(CCCCC6)[C@@]6(C(=O)Nc7cc(Cl)ccc76)[C@H]5c5cccc(Cl)c5F)CC4)CC3)CC2)CC1)[C@@H]1NC2(CCCCC2)[C@@]2(C(=O)Nc3cc(Cl)ccc32)[C@H]1c1cccc(Cl)c1F [I-87]	> 500	> 1000
Cn1c(=O)n(C2CCC(=O)NC2=O)c2ccc(N3CC4(CN(C[C@H]5CC[C@H](NC(=O)[C@@H]6NC7(CCCCC7)[C@@]7(C(=O)Nc8cc(Cl)ccc87)[C@H]6c6cccc(Cl)c6F)CC5)C4)C3)cc21 (stereo partly shown) [I-88]	< 5	< 10
CN(CCc1ccc2c(c1)n(C)c(=O)n2C1CCC(=O)NC1=O)CCN(C)C(=O)[C@H]1CC[C@H](NC(=O)[C@@H]2NC3(CCCCC3)[C@@]3(C(=O)Nc4cc(Cl)ccc43)[C@H]2c2cccc(Cl)c2F)CC1 (stereo partly shown) [I-89]	5 to 50	< 10
CN1C(C(=O)N[C@H]2CC[C@H](C(=O)N3CCC4(CC3)CN(c3ccc5c(c3)n(C)c(=O)n5C3CCC(=O)NC3=O)C4)CC2)[C@H](c2cccc(Cl)c2F)[C@]2(C(=O)Nc3cc(Cl)ccc32)C12CCCCC2 (stereo partly shown) [I-91]	5 to 50	< 10
COc1cc2c(cc1OC(C)C)[C@H](c1ccc(Cl)cc1)N(c1ccc(N(C)C[C@H]3CC[C@H](N(CC(=O)O)C(=O)CCCCc4ccc5c(c4)n(C)c(=O)n5C4CCC(=O)NC4=O)CC3)cc1)C(=O)C2 (stereo partly shown) [I-93]	> 500	100 to 1000
Cn1c(=O)n(C2CCC(=O)NC2=O)c2ccc(C3CCN(C[C@H]4CC[C@H](NC(=O)[C@@H]5NC6(CCCCC6)[C@@]6(C(=O)Nc7cc(CC8CC8)ccc76)[C@H]5c5cccc(Cl)c5F)CC4)CC3)cc21 (stereo partly shown) [I-94]	> 500	> 1000
CCOc1ccc2c(c1)NC(=O)[C@]21[C@@H](c2cccc(Cl)c2F)[C@H](C(=O)N[C@H]2CC[C@H](CN3CCC(c4ccc5c(c4)n(C)c(=O)n5C4CCC(=O)NC4=O)CC3)CC2)NC12CCCCC2 (stereo partly shown) [I-95]	> 500	100 to 1000
CCOc1ccc2c(c1)NC(=O)C21[C@@H](c2cccc(Cl)c2F)[C@H](C(=O)N[C@H]2CC[C@H](C(=O)C3CCN(CCCc4ccc5c(c4)n(C)c(=O)n5C4CCC(=O)NC4=O)CC3)CC2)NC12CCCCC2 (stereo partly shown) [I-96]	> 500	< 10
Cn1c(=O)n(C2CCC(=O)NC2=O)c2ccc(CCN3CCC(NC(=O)[C@@H]4NC5(CCCCC5)[C@@]5(C(=O)Nc6cc(Cl)ccc65)[C@H]4c4cccc(Cl)c4F)CC3)cc21 (stereo partly shown) [I-97]	5 to 50	< 10
Cn1c(=O)n(C2CCC(=O)NC2=O)c2ccc(CN3CCC(NC(=O)[C@@H]4NC5(CCCCC5)[C@@]5(C(=O)Nc6cc(Cl)ccc65)[C@H]4c4cccc(Cl)c4F)CC3)cc21 (stereo partly shown) [I-98]	5 to 50	100 to 1000
O=C(O)Cn1c(=O)n(C2CCC(=O)NC2=O)c2ccc(C3CCN(C(=O)[C@H]4CC[C@H](NC(=O)[C@@H]5NC6(CCCCC6)[C@@]6(C(=O)Nc7cc(Cl)ccc76)[C@H]5c5cccc(Cl)c5F)CC4)CC3)cc21 (stereo partly shown) [I-99]	5 to 50	100 to 1000
